From patent US4016158A, “Cephalosporin derivatives” (Roussel-UCLAF, priority 1971, dated 1977)
Values after ≈ are worked out from the molar mass of the structure shown. Where two headings read alike, the source gives them in different places.

Legend:
Escherichia coli 1718 = assay: MIC (Table II); format: cell-based; conditions: read-out: minimum inhibition concentration
Protocol: (§1) The antibiotic activity was determined by the diffusion method in a gelose medium at a pH of 7. The following Table expresses the minimum concentration of inhibition in mcg/ml (CMl) for the products against different microbial strains.
(§2) Using the same procedure as in Table I, the minimum inhibition concentration in mcg/ml was determined against different microbial strains with L(-) cis 7-[D(-)-α-aminophenylacetamido]-3-isopropyl-3-cepheme-4-carboxylic acid (product A) of Example 9.

Escherichia coli 4965 = assay: MIC (Table II); format: cell-based; conditions: read-out: minimum inhibition concentration
Protocol: as §1, §2

[1] = tested on: Staphylococcus aureus 1098; assay: MIC (Table II); format: cell-based; conditions: read-out: minimum inhibition concentration
Protocol: as §1, §2

[2] = tested on: Staphylococcus aureus 9561; assay: MIC (Table II); format: cell-based; conditions: read-out: minimum inhibition concentration
Protocol: as §1, §2

Escherichia coli 5524 = assay: MIC (Table II); format: cell-based; conditions: read-out: minimum inhibition concentration
Protocol: as §1, §2

[3] = tested on: Staphylococcus aureus 54146; assay: MIC (Table II); format: cell-based; conditions: read-out: minimum inhibition concentration
Protocol: as §1, §2

[4] = tested on: Klebsiella pneumoniae 52145; assay: MIC (Table II); format: cell-based; conditions: read-out: minimum inhibition concentration
Protocol: as §1, §2

Proteus mirabilis 8029 = assay: MIC (Table II); format: cell-based; conditions: read-out: minimum inhibition concentration
Protocol: as §1, §2

[5] = tested on: Salmonella brandebourg 550; assay: MIC (Table II); format: cell-based; conditions: read-out: minimum inhibition concentration
Protocol: as §1, §2

[6] = tested on: Streptococcus hemolyticus 920; assay: MIC (Table II); format: cell-based; conditions: Streptococcus pyogenes, read-out: minimum inhibition concentration
Protocol: as §1, §2

Shigella sonnei = assay: MIC (Table II); format: cell-based; conditions: read-out: minimum inhibition concentration
Protocol: as §1, §2

[7] = tested on: Staphylococcus aureus 889; assay: MIC (Table II); format: cell-based; conditions: Staphylococcus aureus, 889, read-out: minimum inhibition concentration
Protocol: as §1, §2

[8] = tested on: Staphylococcus aureus 980; assay: MIC (Table II); format: cell-based; conditions: 24h, read-out: minimum inhibition concentration
Protocol: as §1, §2

Proteus mirabilis 3113 = assay: MIC (Table II); format: cell-based; conditions: read-out: minimum inhibition concentration
Protocol: as §1, §2

[9] = tested on: Streptococcus hemolyticus 561; assay: MIC (Table II); format: cell-based; conditions: Streptococcus pyogenes, read-out: minimum inhibition concentration
Protocol: as §1, §2

Escherichia coli 070 = assay: MIC (Table II); format: cell-based; conditions: read-out: minimum inhibition concentration
Protocol: as §1, §2

[10] = tested on: Staphylococcus aureus 9729; assay: MIC (Table II); format: cell-based; conditions: Staphylococcus aureus, 9729, read-out: minimum inhibition concentration
Protocol: as §1, §2

[11] = tested on: Diplococcus pneumoniae 735; assay: MIC (Table II); format: cell-based; conditions: Streptococcus pneumoniae, read-out: minimum inhibition concentration
Protocol: as §1, §2

Pseudomonas = assay: MIC, diffusion method in gelose medium at pH 7 (Table I); format: cell-based; conditions: read-out: minimum concentration of inhibition
Protocol: as §1

[12] = tested on: Strept. hemoly. Todd Hewitt; assay: as above; format: cell-based; conditions: Strept. hemoly. Todd Hewitt, pH 7; read-out: minimum concentration of inhibition
Protocol: as §1

Staph. U.C. 1128 P(-) = assay: as above; format: cell-based; conditions: Staph. UC 1128, penicillin resistant, read-out: minimum concentration of inhibition
Protocol: as §1

[13] = tested on: Staph. aureus oxford U.C. 1061 P(+); assay: as above; format: cell-based; conditions: Staphylococcus aureus, UC1061; Staph. aureus oxford UC 1061, penicillin sensitive, pH 7; read-out: minimum concentration of inhibition
Protocol: as §1

Bac. Subt. = assay: as above; format: cell-based; conditions: Bac. Subt., pH 7; read-out: minimum concentration of inhibition
Protocol: as §1

Escher. Coli UC 1261 = assay: as above; format: cell-based; conditions: Escherichia coli, UC1261; Escher. Coli UC 1261, pH 7; read-out: minimum concentration of inhibition
Protocol: as §1

Escher. Coli UC 1020 = assay: as above; format: cell-based; conditions: Escherichia coli, UC1020; Escher. Coli UC 1020, pH 7; read-out: minimum concentration of inhibition
Protocol: as §1

Strept. Fecalis 5432 = assay: as above; format: cell-based; conditions: Strept. Fecalis 5432, pH 7; read-out: minimum concentration of inhibition
Protocol: as §1

[14] = transcutaneous toxicity in rats; conditions: rat, in vivo, topical or ocular, male rats
solubility = format: physicochemical
Staphylococcus aureus = assay: in vivo antibacterial activity, experimental staphylococcia in mice, oral
Protocol: The in vivo antibacterial activity for product A was determined in mice with an experimental staphylococcia. 50 male mice weighing 20 to 23 g were divided into 5 groups of 10 mice each and all were infected interperitoneally with 0.5 ml of a 15 hour culture of Staphylococcus aureus in Pasteur nutritive broth diluted 1/3 with distilled water. Each mouse received product A orally 1 hour and 5 hours after the infection.

[15] = 0.5 mg repeated two times, oral
[16] = 0.5 mg repeated two times, oral, 10 mice
[17] = 1.0 mg repeated two times, oral
[18] = 2.0 mg repeated two times, oral
[19] = 3.0 mg repeated two times, oral

## CC(C)C1=C(C(=O)O)N2C(=O)[C@@H](NC(=O)[C@H](N)c3ccccc3)[C@H]2SC1 [Example 9, L (+) cis 7-[D (-)-α-aminophenylacetamido]-3-isopropyl-3-cepheme-4-carboxylic acid]
Escherichia coli 1718; 24h
  MIC: 40 µg/mL (≈ 107 µM)
Escherichia coli 1718; 48h
  MIC: 40 µg/mL (≈ 107 µM)
Escherichia coli 1718; 72h
  MIC: 60 µg/mL (≈ 160 µM)
Escherichia coli 4965; 24h
  MIC: 30 µg/mL (≈ 79.9 µM)
Escherichia coli 4965; 48h
  MIC: 40 µg/mL (≈ 107 µM)
Escherichia coli 4965; 72h
  MIC: 40 µg/mL (≈ 107 µM)
[1]; 24h
  MIC: 0.4 µg/mL (≈ 1.07 µM)
[1]; 48h
  MIC: 1 µg/mL (≈ 2.66 µM)
[1]; 72h
  MIC: 3 µg/mL (≈ 7.99 µM)
[2]; 24h
  MIC: 1 µg/mL (≈ 2.66 µM)
[2]; 48h
  MIC: 3 µg/mL (≈ 7.99 µM)
[2]; 72h
  MIC: 10 µg/mL (≈ 26.6 µM)
Escherichia coli 5524; 24h
  MIC: 60 µg/mL (≈ 160 µM)
Escherichia coli 5524; 48h
  MIC: 60 µg/mL (≈ 160 µM)
Escherichia coli 5524; 72h
  MIC: 60 µg/mL (≈ 160 µM)
[3]; 24h
  MIC: 1 µg/mL (≈ 2.66 µM)
[3]; 48h
  MIC: 1 µg/mL (≈ 2.66 µM)
[3]; 72h
  MIC: 2 µg/mL (≈ 5.33 µM)
[4]; 24h
  MIC: 30 µg/mL (≈ 79.9 µM)
[4]; 48h
  MIC: 60 µg/mL (≈ 160 µM)
[4]; 72h
  MIC: > 100 µg/mL
Proteus mirabilis 8029; 24h
  MIC: 60 µg/mL (≈ 160 µM)
Proteus mirabilis 8029; 48h
  MIC: > 100 µg/mL
[5]; 24h
  MIC: 30 µg/mL (≈ 79.9 µM)
[5]; 48h
  MIC: 30 µg/mL (≈ 79.9 µM)
[5]; 72h
  MIC: 40 µg/mL (≈ 107 µM)
[6]; 24h
  MIC: 2 µg/mL (≈ 5.33 µM)
[6]; 48h
  MIC: 2 µg/mL (≈ 5.33 µM)
[6]; 72h
  MIC: 3 µg/mL (≈ 7.99 µM)
Shigella sonnei; 24h
  MIC: 30 µg/mL (≈ 79.9 µM)
Shigella sonnei; 48h
  MIC: 30 µg/mL (≈ 79.9 µM)
Shigella sonnei; 72h
  MIC: 30 µg/mL (≈ 79.9 µM)
[7]; 24h
  MIC: 5 µg/mL (≈ 13.3 µM)
[7]; 48h
  MIC: 10 µg/mL (≈ 26.6 µM)
[7]; 72h
  MIC: 20 µg/mL (≈ 53.3 µM)
[8]
  MIC: > 40 µg/mL
Proteus mirabilis 3113; 24h
  MIC: 100 µg/mL (≈ 266 µM)
Proteus mirabilis 3113; 48h
  MIC: > 100 µg/mL
[9]; 24h
  MIC: 0.6 µg/mL (≈ 1.6 µM)
[9]; 48h
  MIC: > 40 µg/mL
Escherichia coli 070; 24h
  MIC: 40 µg/mL (≈ 107 µM)
Escherichia coli 070; 48h
  MIC: 40 µg/mL (≈ 107 µM)
Escherichia coli 070; 72h
  MIC: 40 µg/mL (≈ 107 µM)
[10]; 24h
  MIC: 2 µg/mL (≈ 5.33 µM)
[10]; 48h
  MIC: 2 µg/mL (≈ 5.33 µM)
[10]; 72h
  MIC: 5 µg/mL (≈ 13.3 µM)
[11]; 24h
  MIC: 0.4 µg/mL (≈ 1.07 µM)
[11]; 48h
  MIC: 1 µg/mL (≈ 2.66 µM)
[11]; 72h
  MIC: 1 µg/mL (≈ 2.66 µM)
Pseudomonas
  MIC: > 100 µg/mL
[12]
  MIC: 10 µg/mL (≈ 26.6 µM)
Staph. U.C. 1128 P(-)
  MIC: 2 µg/mL (≈ 5.33 µM)
[13]
  MIC: 0.4 µg/mL (≈ 1.07 µM)
Bac. Subt.
  MIC: 0.2 µg/mL (≈ 0.533 µM)
Escher. Coli UC 1261
  MIC: 40 to 100 µg/mL (≈ 107 to 266 µM)
Escher. Coli UC 1020
  MIC: 100 µg/mL (≈ 266 µM)
Strept. Fecalis 5432
  MIC: 20 µg/mL (≈ 53.3 µM)
[14]
  LD50 at 192 h: > 1600 mg/kg
solubility; ethanol
  solubility in ethanol: slightly soluble
solubility; ether
  solubility in ether: insoluble
Staphylococcus aureus; [15]
  Mice living on 8th day: 7/10
  Mice living on 8th day (%): 70%
Staphylococcus aureus; [16]
  Mortality at 10h: 1
  Mortality at 22h: 1
  Mortality at 70h: 1
Staphylococcus aureus; [17]
  Mice living on 8th day: 9/10
  Mice living on 8th day (%): 90%
Staphylococcus aureus; 1.0 mg repeated two times, oral, 10 mice
  Mortality at 70h: 1
Staphylococcus aureus; [18]
  Mice living on 8th day: 10/10
  Mice living on 8th day (%): 100%
Staphylococcus aureus; [19]
  Mice living on 8th day: 10/10
  Mice living on 8th day (%): 100%
Staphylococcus aureus; administered orally, 1 hour and 5 hours after infection
  antibacterial activity: good antibacterial activity
